Starred links: 1 amine or outer side, 2 acyl side, 3 side chain; linkers in the order of their positions; H or OH if unused. Positions of bridges follow the written chain, without caps; N, C: chain ends. Non-standard residues stand in square brackets, D forms with d. Residues, ends and D or L forms follow the SMILES beside them. X1 = [N-]=[N+]=NCCOCCOCCNC(=N)NCCC[C@H](N[*:1])C(=O)[*:2]; Dip = N[C@H](C(=O)O)C(c1ccccc1)c1ccccc1
Experiments:
Ile83Glu memAb anti-HER2 = experiment: SPR binding kinetics of meditope variants to immobilized Ile83Glu memAb anti-HER2
memAb anti-HER2 = experiment: SPR binding kinetics of meditope variants to immobilized memAb anti-HER2; conditions: n=1
[1] = SPR Biacore T100, memAb on CM5 chip, HBS-EP+, 1:1 model, 25°C

Structure (SMILES) | ka (memAb anti-HER2; [1]) | Kd (memAb anti-HER2; SPR, 25°C) | kd (memAb anti-HER2; SPR, 25°C) | other results
CC(=O)N[C@H]1CSSC[C@@H](C(=O)NCC(=O)NCC(=O)N[C@@H](CO)C(=O)N[C@@H](CCCCN)C(=O)O)NC(=O)[C@H](CCCNC(=N)N)NC(=O)[C@H](CC(C)C)NC(=O)[C@H](CCCNC(=N)N)NC(=O)[C@H](CCCNC(=N)NCCOCCOCCN=[N+]=[N-])NC(=O)[C@H]([C@@H](C)O)NC(=O)[C@H](CO)NC(=O)[C@H](C(c2ccccc2)c2ccccc2)NC(=O)[C@H](CC(=O)O)NC(=O)[C@H](Cc2ccccc2)NC(=O)[C@H](CCC(N)=O)NC1=O (Ac-CQFD[Dip]ST[X1]RLRCGGSK-OH; disulfide 1-12) | – | – | – | Kd (Ile83Glu memAb anti-HER2; SPR sensogram (Fig. 1c E83 / Supplementary Fig. 1a), 37 °C, n = 1): 2.1 nM; half-life of the interaction (τ) (Ile83Glu memAb anti-HER2; SPR, 37 °C): 1.38 h
CC(C)C[C@@H]1NC(=O)[C@H](CCCNC(=N)N)NC(=O)[C@H](CCCNC(=N)N)NC(=O)[C@H]([C@@H](C)O)NC(=O)[C@H](CO)NC(=O)[C@H](C(c2ccccc2)c2ccccc2)NC(=O)[C@H](CC(=O)O)NC(=O)[C@H](Cc2ccccc2)NC(=O)[C@H](CCC(N)=O)NC(=O)[C@@H](N)CSSC[C@@H](C(=O)O)NC(=O)[C@H](CCCCN)NC1=O [CQFDA(Ph)2STRRLKC] | 20 M-1s-1 x 104 | 40 nM | 0.008 s⁻¹ | –
CC(C)C[C@@H]1NC(=O)[C@H](C)NC(=O)[C@H](CCCNC(=N)N)NC(=O)[C@H](CO)NC(=O)[C@H](CO)NC(=O)[C@H](CC(C)C)NC(=O)[C@H](CC(N)=O)NC(=O)[C@H](Cc2ccc(O)cc2)NC(=O)[C@H](CCC(N)=O)NC(=O)[C@@H](N)CSSC[C@@H](C(=O)O)NC(=O)[C@H](CCCCN)NC1=O | 0.97 M-1s-1 x 104 | 3400 nM | 0.033 s⁻¹ | –
CC(C)C[C@@H]1NC(=O)[C@H](CCCNC(=N)N)NC(=O)[C@H](CCCNC(=N)N)NC(=O)[C@H]([C@@H](C)O)NC(=O)[C@H](CO)NC(=O)[C@H](CC(C)C)NC(=O)[C@H](CC(=O)O)NC(=O)[C@H](Cc2ccccc2)NC(=O)[C@H](CCC(N)=O)NC(=O)CCCCCCNC(=O)[C@H](CCCCN)NC1=O | 2.1 M-1s-1 x 104 | 5700 nM | 0.12 s⁻¹ | –
CC(C)C[C@@H]1NC(=O)[C@H](CCCNC(=N)N)NC(=O)[C@H](CCCNC(=N)N)NC(=O)[C@H]([C@@H](C)O)NC(=O)[C@H](CO)NC(=O)[C@H](CC(C)C)NC(=O)[C@H](CC(=O)O)NC(=O)[C@H](Cc2ccc(O)cc2)NC(=O)[C@H](CCC(N)=O)NC(=O)[C@@H](N)CSSC[C@@H](C(=O)O)NC(=O)[C@H](CCCCN)NC1=O | 2.8 M-1s-1 x 104 | 3900 nM | 0.11 s⁻¹ | –
CC(C)C[C@@H]1NC(=O)[C@H](CCCNC(=N)N)NC(=O)[C@H](CCCNC(=N)N)NC(=O)[C@H]([C@@H](C)O)NC(=O)[C@H](CO)NC(=O)[C@H](CC(C)C)NC(=O)[C@H](CC(=O)O)NC(=O)[C@H](Cc2ccc(Br)cc2)NC(=O)[C@H](CCC(N)=O)NC(=O)[C@@H](N)CSSC[C@@H](C(=O)O)NC(=O)[C@H](CCCCN)NC1=O | 0.91 M-1s-1 x 104 | 4700 nM | 0.042 s⁻¹ | –

Further lines, with some results ahead:

ka (memAb anti-HER2; [1]) | Kd (memAb anti-HER2; SPR, 25°C) | kd (memAb anti-HER2; SPR, 25°C) | Structure (SMILES) | other results
2.8 M-1s-1 x 104 | 210 nM | 0.006 s⁻¹ | CC(=O)N[C@H]1CSSC[C@@H](C(=O)NCC(=O)NCC(=O)N[C@@H](CO)C(=O)N[C@@H](CCCCN)C(=O)O)NC(=O)[C@H](CCCNC(=N)N)NC(=O)[C@H](CC(C)C)NC(=O)[C@H](CCCNC(=N)N)NC(=O)[C@H](CCCNC(=N)N)NC(=O)[C@H]([C@@H](C)O)NC(=O)[C@H](CO)NC(=O)[C@H](CC(C)C)NC(=O)[C@H](CC(=O)O)NC(=O)[C@H](Cc2ccccc2)NC(=O)[C@H](CCC(N)=O)NC1=O | Kd (memAb anti-HER2; SPR, 37 °C): 350 nM; ka (memAb anti-HER2; SPR, 37 °C): 7.5 M-1s-1 x 104; kd (memAb anti-HER2; SPR, 37 °C): 0.026 s⁻¹; Kd (Ile83Glu memAb anti-HER2; SPR, 25°C, n=1): 0.44 nM; ka (Ile83Glu memAb anti-HER2; SPR, 25°C, n=1): 71 M-1s-1 x 104; Kd (Ile83Glu memAb anti-HER2; SPR, 37°C, n=4, mean (±SD)): 4 nM; ka (Ile83Glu memAb anti-HER2; SPR, 37°C, n=4, mean (±SD)): 16 (±6) M-1s-1 x 104
0.92 M-1s-1 x 104 | 2600 nM | 0.024 s⁻¹ | CC(C)C[C@@H]1NC(=O)[C@H](CCCNC(=N)N)NC(=O)[C@H](CCCNC(=N)N)NC(=O)[C@H]([C@@H](C)O)NC(=O)[C@H](CO)NC(=O)[C@H](CC(C)C)NC(=O)[C@H](CC(=O)O)NC(=O)[C@H](C(c2ccccc2)c2ccccc2)NC(=O)[C@H](CCC(N)=O)NC(=O)[C@@H](N)CSSC[C@@H](C(=O)O)NC(=O)[C@H](CCCCN)NC1=O | –
1.8 M-1s-1 x 104 | 1000 nM | 0.018 s⁻¹ | CC(C)C[C@@H]1NC(=O)[C@H](CCCNC(=N)N)NC(=O)[C@H](CCCNC(=N)N)NC(=O)[C@H]([C@@H](C)O)NC(=O)[C@H](CO)NC(=O)[C@H](CC(C)C)NC(=O)[C@H](CC(=O)O)NC(=O)[C@H](Cc2ccccc2)NC(=O)[C@H](CCC(N)=O)NC(=O)CCSSC[C@@H](C(=O)O)NC(=O)[C@H](CCCCN)NC1=O [(MPT) QFDLSTRRLKC] | –

From PMC5910394, “Mechanically interlocked functionalization of monoclonal antibodies” (Nature Communications, 2018)
